PubChem BioAssay AID449764 (Southern Research Specialized Biocontainment Screening …, 2010)

What follows are compounds tested on Mycobacterium tuberculosis H37Rv growth inhibition, no glycerol (assay: Mycobacterium tuberculosis H37Rv growth inhibition, no glycerol, confirmatory dose response (AID 449764;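 note: growth read after 7 days of incubation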)). Conditions: measured here: IC90 growth inhibition.
Cc1ccc(C(=O)O/N=C\c2ccc(N3CCCCC3)c([N+](=O)[O-])c2)cc1 showed an IC90 greater than 100 µM. Work on CC(C(c1ccc2c(c1)OCO2)c1c(N)n(C)c(=O)n(C)c1=O)[N+](=O)[O-] (centres undefined) yielded an IC90 of 11.8 µM. For CCc1ccc(NC(=S)/N=C(\N)Nc2nc(C)c3cc(CC)ccc3n2)cc1, the IC90 was 21.1 µM. COC(=O)c1c(NC(=S)NN2CCN(C)CC2)sc2c1CCC(C)C2 (centres undefined) was tested, and the IC90 was 26.6 µM. CCCCCCCNC1=CC(=O)CC(c2ccccc2)C1 (centres undefined) was tested, and the IC90 was 61.3 µM. CCCC(=O)Nc1ccc(C(=O)/C=C/c2ccc(SC)cc2)cc1 was tested, and the IC90 was 85.4 µM. With CCOC(=O)c1ccc(NC(=O)C(C)Sc2nc(O)c(-c3ccccc3)c(=O)[nH]2)cc1 (centres undefined) the IC90 was 35 µM. Work on Clc1ccc(-c2[nH]ncc2N=Nc2ccccc2)cc1 yielded an IC90 greater than 100 µM. CN(CCCNC(=O)c1cc2c(Cl)nc3ccccc3c2s1)Cc1ccccc1 was tested, and the IC90 was 91.1 µM. For Nc1[nH]n2c(=O)cc(-c3ccccc3)nc2c1N=Nc1ccc2c(c1)OCO2, the IC90 was 50.2 µM. In the case of COc1cc(/C=C/C(=O)c2c(O)n(CCc3ccccc3)c(=O)[nH]c2=O)ccc1O, the IC90 is reported as 21.8 µM. Cn1c(CNc2nc(-c3ccccc3)cs2)nnc1SCC(=O)OC1CCCCC1 was tested, and the IC90 was 27.3 µM. Work on CN(C)[C@@H]1C(=O)C(C(N)=O)=C(O)[C@@]2(O)C(=O)C3=C(O)c4c(O)cccc4[C@@](C)(O)C3C[C@@H]12 (some centres undefined) yielded an IC90 of 27.4 µM. Work on Cc1ccsc1/C=C1\SC(N2CCOCC2)=NC1=O yielded an IC90 of 27 µM. In the case of Cc1csc(NC(=O)CCCC(=O)O)c1-c1nc2ccccc2s1, the IC90 is reported as greater than 100 µM. With CCC(=O)Nc1nc2ccccc2n1Cc1ccc(Cl)cc1 the IC90 was 4.27 µM. Work on c1ccc(-c2nnc(-c3ccccn3)nn2)nc1 yielded an IC90 of 6.86 µM. With c1ccc(CCN2CCN(c3ncnc4c3cnn4-c3ccccc3)CC2)cc1 the IC90 was 91.1 µM. Compound CCOC(=O)N1CCN(C(=O)CSc2nnc(-c3ccc(Cl)s3)o2)CC1 has an IC90 of 29.9 µM. With N=c1n(Cc2ccc(Cl)cc2)c2ccccc2n1CC(O)COc1ccccc1 (centres undefined) the IC90 was 27.2 µM. CNc1ccc2oc(C[C@H]3O[C@@]4(CC[C@H]3C)O[C@H]([C@H](C)C(=O)c3ccc[nH]3)[C@H](C)C[C@H]4C)nc2c1C(=O)O gave an IC90 of 3.18 µM. With Cc1cc2c(N=O)c(NO)ccc2[nH]1 the IC90 was 18.2 µM. In the case of Cc1ccc(-c2c[n+](CC(=O)N3c4ccccc4Sc4ccccc43)c3n2CCC3)cc1, the IC90 is reported as 26.1 µM. Compound Cc1c(OCc2ccccc2)c(=O)ccn1Cc1ccc(Cl)cc1 has an IC90 of 95.9 µM. Compound COc1ccccc1NC(=O)Nc1nc(CC(=O)N2CCN(c3ccccc3F)CC2)cs1 has an IC90 greater than 100 µM. NC(=O)c1cccc(-c2cc(Nc3ccc(OC(F)(F)F)cc3)ncn2)c1 was tested, and the IC90 was greater than 25 µM. Compound Cn1cc(C(=O)c2ccc(Cl)cc2)cc1-c1nc2ccccc2n1C has an IC90 of 49.5 µM. N#C/C(=C/c1ccc(Sc2nc3ccccc3[nH]2)o1)c1cccc(Br)c1 showed an IC90 greater than 100 µM. With CCC(=O)c1ccc(OCC(O)CN2CCN(c3cccc(C(F)(F)F)c3)CC2)cc1 (centres undefined) the IC90 was 26.7 µM. Compound O=[N+]([O-])c1cc(Cl)c(O)c(-[n+]2c(-c3ccccc3)cc(-c3ccccc3)cc2-c2ccccc2)c1 has an IC90 of 7.3 µM. O=C(OCC(=O)N1CCCCC1)c1cc2ccccc2cc1O was tested, and the IC90 was 3.42 µM. In the case of COC(=O)c1ccc(NC(=S)NC(=O)C2CCC2)cc1, the IC90 is reported as greater than 100 µM. In the case of O=C(Oc1ccc(-c2cn3c(n2)SCC3)cc1)c1ccccc1, the IC90 is reported as greater than 100 µM. For CCC(=O)NC(=S)Nc1ccc(NC(=O)COc2ccc(Cl)cc2Cl)cc1, the IC90 was greater than 100 µM. In the case of CCN(CC)C(=O)Oc1ccc2c(=O)c(-c3ccc(OC)cc3)coc2c1, the IC90 is reported as greater than 100 µM. Compound CCc1ccc2nc(N3C(=O)C(O)=C(C(=O)c4ccco4)C3c3cccs3)sc2c1 (centres undefined) has an IC90 of 95.2 µM. In the case of CC(C)(C)C1CCc2nc(NC(=O)Cc3cn4ccsc4n3)sc2C1 (centres undefined), the IC90 is reported as 35.4 µM. Compound O=C(Nc1nc2nc(-c3ccccc3)cc(=O)n2[nH]1)c1ccccc1 has an IC90 greater than 100 µM. Compound Cc1ccc(CN2C3CCCC2CC(NC(=S)NCc2ccccc2)C3)cc1 (centres undefined) has an IC90 of 75.6 µM. With Cc1cccc(N2CCN(CCCNC(=O)c3ccc(NC(=O)C4=CSCCO4)cc3)CC2C)c1 (centres undefined) the IC90 was 28.7 µM. With O=c1oc2ccccc2c(O)c1/C=C1\C=Nc2ccccc21 the IC90 was 64.6 µM. CCOC(=O)C1=C(C)Nc2nc(SCC(=O)OC)nn2C1c1cc(F)cc(F)c1 (centres undefined) gave an IC90 of 12.5 µM. For COc1ccc2c(c1)CCc1c(C(=O)Nc3c(C)n(C)n(-c4ccccc4)c3=O)noc1-2, the IC90 was greater than 100 µM. Oc1c(C(c2ccccc2Cl)N2CCCC2)ccc2cccnc12 (centres undefined) showed an IC90 of 37.7 µM. Nc1ccc(S(=O)(=O)Nc2cnc3ccccc3n2)cc1 gave an IC90 of 27.3 µM. COC(=O)[C@@H](NC(=O)O[C@@H]1C(=O)c2ccc(OC)cc2O[C@H]1c1cccc(C(F)(F)F)c1)C(C)C was tested, and the IC90 was greater than 100 µM. Work on Oc1cc(Nc2ccccc2)cc2cccnc12 yielded an IC90 of 24.7 µM. CCOc1ccc(C2c3[nH]c4ccccc4c3C[C@H]3C(=O)N(C4CCN(Cc5ccccc5)CC4)CC(=O)N23)cc1OC (some centres undefined) was tested, and the IC90 was greater than 100 µM. COc1cc(CNCCc2ccccc2)cc(Cl)c1OCc1ccccc1 was tested, and the IC90 was 26.2 µM. In the case of COc1ccc(CN2CCN(C(c3ccc(F)cc3)c3ccc(F)cc3)CC2)c(OC)c1OC, the IC90 is reported as 40.5 µM. Compound CN(CC(=O)Nc1ccc(OC(F)(F)F)cc1)C(=O)/C=C/c1cc2c(cc1[N+](=O)[O-])OCO2 has an IC90 of 40.5 µM. In the case of CCOC(=O)c1ccc(N=c2sc(C(=O)OC)cc(=O)n2CCCN2CCOCC2)cc1, the IC90 is reported as 16.9 µM. In the case of Oc1ccc(Nc2nc(-c3ccc4ccccc4c3)cs2)cc1, the IC90 is reported as greater than 100 µM. Cc1ccc(C(=O)c2cc(C)sc2NC(=O)CN2CCN(C(=O)c3ccco3)CC2)cc1 was tested, and the IC90 was 27.4 µM. With C[N+](C)(CCCCCC[N+](C)(C)CCCN1C(=O)c2cccc3cccc(c23)C1=O)CCCN1C(=O)c2cccc3cccc(c23)C1=O the IC90 was 5.15 µM. CCCCn1c(=O)c(C(=O)Nc2ncccc2C)c(O)c2ccccc21 showed an IC90 of 22.1 µM. Work on COc1cccc2c1C(=O)c1c(O)c3c(c(O)c1C2=O)C[C@@](O)(C(=O)CO)C[C@@H]3O[C@H]1C[C@H](N)[C@@H](O)[C@H](C)O1 yielded an IC90 of 6.6 µM. With Cc1cc(/C=N/n2cnnc2)c(C)n1-c1ccc(OCc2ccc(Cl)cc2Cl)cc1 the IC90 was 21.5 µM. In the case of O=C1CN(CC(=O)N2CCCCC2)c2ccccc2O1, the IC90 is reported as 27.1 µM. CCCn1c(N2CCN(Cc3ccc(Cl)cc3)CC2)nc2ccccc21 was tested, and the IC90 was 38 µM. In the case of OC(CN1CCN(c2ccccn2)CC1)Cn1c2ccccc2c2ccccc21 (centres undefined), the IC90 is reported as 55.1 µM. For CCCCCc1ccc(-c2cn(Cc3cccc(OC)c3)nn2)cc1, the IC90 was greater than 100 µM. Cc1c(Cl)cccc1-c1ccc(CNCc2ccccn2)o1 gave an IC90 of 13.6 µM. Work on C(=C\c1nccc2c1[nH]c1ccccc12)/c1ccccc1 yielded an IC90 of 42.7 µM. Brc1ccc(N/N=C(/N=Nc2nn[nH]n2)c2ccccc2)cc1 was tested, and the IC90 was 23.3 µM. O=C(c1cc2cc(Cl)ccc2[nH]1)N1CCN(Cc2ccc3c(c2)OCO3)CC1 gave an IC90 greater than 25 µM. O=C(C1=C[C@@H](c2csc3ccccc23)C[C@@H](OCCCCO)O1)N1CCN(Cc2ccc3c(c2)OCO3)CC1 was tested, and the IC90 was 53.6 µM. CCCCNC(=S)N(C)/N=C/c1ccc2c(c1)OCO2 gave an IC90 of 21.6 µM. Nc1nnnn1/N=C/C(Br)=C/c1ccccc1 was tested, and the IC90 was 10.9 µM. With Cn1cccc1/C=C1/C(=O)NC(=S)N(Cc2ccc(F)cc2)C1=O the IC90 was greater than 100 µM. CC(C)(C)c1ccc(C(=O)CSc2n[nH]c(=O)[nH]c2=O)cc1 gave an IC90 of 28.6 µM. CN(C)CCCN(C(=O)c1cc(-c2cccs2)nc2ccccc12)c1nc2ccc(F)cc2s1 gave an IC90 of 54.3 µM. Cc1ccc(-n2cc(CN(C)Cc3nccn3C)c(-c3cccc(C)c3)n2)cc1 was tested, and the IC90 was 17.4 µM. CC1CN(c2ccc([N+](=O)[O-])c(NCCOc3ccc(Cl)cc3)c2)CC(C)N1 (centres undefined) gave an IC90 of 31.2 µM. Work on O=C(COc1ccccc1)NNc1nc2ccccc2s1 yielded an IC90 greater than 100 µM. CN1C(=S)SC(N(O)C(=O)Nc2ccc(Cl)c(Cl)c2)C1(C)C (centres undefined) was tested, and the IC90 was 26.6 µM. Work on N#Cc1nc(-c2ccc(OCc3ccccc3)cc2)oc1NCCCn1ccnc1 yielded an IC90 of 43 µM. C=CCn1cccc(/C=C/C(=O)c2ccc(C(C)(C)C)cc2)c1=S showed an IC90 of 86.8 µM. O=C(C[C@@H]1C/C=C\C[C@H](NC(=O)OCC2c3ccccc3-c3ccccc32)C(=O)OC[C@H]2CCCN2C1=O)N[C@@H](CO)Cc1ccccc1 was tested, and the IC90 was 37.2 µM. With NC(N)=Nc1nc(-c2ccccc2)c2ccccc2n1 the IC90 was greater than 100 µM. Cc1ccc(-n2[nH]c(C)c(C=Nc3ccc(S(=O)(=O)Nc4nccs4)cc3)c2=O)c(C)c1 was tested, and the IC90 was 12 µM. CC(=O)Nc1ccc(S(=O)(=O)Nc2ccc(N3CCCCC3)cc2)cc1 showed an IC90 of 15.9 µM. COCC(=O)O[C@]1(CCN(C)CCCc2nc3ccccc3[nH]2)CCc2cc(F)ccc2[C@@H]1C(C)C was tested, and the IC90 was 53.2 µM. S=C1SCN(Cc2ccco2)CN1Cc1ccco1 gave an IC90 of 54.2 µM.
